Test results reported in patent US20110046223A1, “TREATMENT OF NEUROFIBROMATOSIS” (RAMOT AT TEL-AVIV UNIVERSITY LTD., priority 2006, published 2011).

Experiments:
[1] = test system: total ERK, total Akt, or total RalA; assay: total ERK, total Akt, total RalA, Western immunoblotting; assay type: cell-based, human; settings: NF-1 cell lines
Method: (§1) Unless otherwise indicated, cells were lysed 48 hours after being treated with lysis buffer, as described in Haklai, et al., supra. […] Protein bands were visualized by ECL and quantified by densitometry with Image Master VDS-CL (Amersham) using TINA 2.0 software (Ray Tests). To obtain reliable comparisons between replicated experiments for statistical analysis, a standardization procedure was used, in which the density of each given protein band as recorded with its specific Ab, was normalized. […] The standard average density was defined as 1.0, and each of the individually determined bands was related to this value. […] Actin cytoskeletal elements were labeled with rhodamine-phalloidin, and digital fluorescence images were collected on a Zeiss LSM 510 confocal microscope fitted with fluorescein and rhodamine filters, as described in Gana-Weisz, M., et al., supra.
(§2) Next, to determine whether down-regulation of active Ras by FTS was accompanied by inhibition of Ras signaling, the effect of FTS on steady-state levels of phospho-ERK, phospho-Akt, and RalA-GTP as read-outs of the three prominent Ras pathways, Ras/Raf/MEK/ERK, Ras/PI3K/Akt, and Ras/RalGEF/RalA, respectively, was examined. […]

phospho-ERK = assay: steady-state phospho-ERK, Western immunoblotting; assay type: cell-based, human
Method: as §1, §2

RalA-GTP = assay: steady-state RalA-GTP, GST-RalBD pulldown assay; assay type: cell-based, human
Method: as §1, §2

p120 RasGAP = p120 RasGAP amounts, immunoblot; assay type: cell-based, human; settings: 75 μM FTS, 48 hours, NF-1 and non-NF-1 cells
Method: (§3) Unless otherwise indicated, cells were lysed 48 hours after being treated with lysis buffer, as described in Haklai, et al., supra. […] Protein bands were visualized by ECL and quantified by densitometry with Image Master VDS-CL (Amersham) using TINA 2.0 software (Ray Tests). To obtain reliable comparisons between replicated experiments for statistical analysis, a standardization procedure was used, in which the density of each given protein band as recorded with its specific Ab, was normalized. […] The standard average density was defined as 1.0, and each of the individually determined bands was related to this value. […] Actin cytoskeletal elements were labeled with rhodamine-phalloidin, and digital fluorescence images were collected on a Zeiss LSM 510 confocal microscope fitted with fluorescein and rhodamine filters, as described in Gana-Weisz, M., et al., supra. […]

Ras = assay: steady-state Ras levels, Western immunoblotting; assay type: cell-based, human; settings: 75 μM FTS, 48 hours, all cell lines, P<0.05
Method: as §3

T265P21 cells = assay: cell growth, direct counting of cells, FTS dose-response; assay type: cell-based; settings: Homo sapiens, 72 h, grown three days, FTS 12.5-100 μM, means±SD, n=4, read-out: estimated IC50, decrease in cell number
Method: (§4) The human NF-1 MPNST cell lines ST88-14, T265P21 and 90-8 and the non-NF-1 human MPNST cell line STS26T were obtained from Dr. Nancy Ratner. T265P21, 90-8, and ST88-14 cells were maintained in RPMI/15% fetal calf serum (FCS) medium and STS26T cells were maintained in DMEM/10% FCS, as described in Weisz, B., et al., supra. Cells were plated at a density of 1×10^6 cells per 10-cm plate for biochemical and immunoblotting assays, 2.5×10^3 cells/well in 24-well plates for cell-growth assays, or on glass cover slips (5×10^4 cells per 35-mm dish) for labeling of actin cytoskeletal elements. The cells were incubated for 24 hours, treated with the indicated concentration of FTS or with the vehicle (0.1% DMSO) (control) for the times specified in each of the experiments, and then subjected to the various assays as described below. The effect of FTS on cell growth was estimated by direct counting of cells collected from each well, as described in Weisz, B., et al., supra.
(§5) To determine the effects of the Ras inhibitor FTS on the growth rates of the NF-1 cell lines ST88-14, 90-8, T265P21 and the non-NF-1 STS26T cells, the cells were grown for two days in the absence and in the presence of 50 μM FTS, and then photomicrographed. […] Additionally, cells were grown for three days and then detached, collected, and counted as described in Methods to determine dose-dependent inhibition by FTS.

90-8 cells = assay: as above; assay type: cell-based; settings: Homo sapiens, 72 h, grown three days, FTS 12.5-100 μM, means±SD, n=4, read-out: estimated IC50, decrease in cell number
Method: as §4, §5

STS26T cells = assay: as above; assay type: cell-based; settings: Homo sapiens, STS-26T, 72 h, grown three days, FTS 12.5-100 μM, means±SD, n=4, read-out: estimated IC50, decrease in cell number
Method: as §4, §5

ST88-14 cells = assay: as above; assay type: cell-based; settings: Homo sapiens, 72 h, grown three days, FTS 12.5-100 μM, means±SD, n=4, read-out: estimated IC50, decrease in cell number
Method: as §4, §5

CC(C)=CCC/C(C)=C/CC/C(C)=C/CSc1ccccc1C(=O)O [FTS, S-farnesylthiosalicylic acid]
amounts of total ERK, total Akt, or total RalA [1]: did not affect | steady-state phospho-ERK (phospho-ERK; all NF-1 cell lines): significant reduction | increase in phospho-ERK (phospho-ERK; non-NF-1 STS26T cells, steady state): 10%-20% | steady-state RalA-GTP (RalA-GTP; all NF-1 cell lines): significant reduction | steady-state RalA-GTP (RalA-GTP; non-NF-1 STS26T cells): significant reduction | amounts of p120 RasGAP (p120 RasGAP): no effect | reduction in Ras levels (Ras): 15-30% | IC50 (T265P21 cells): 35 ± 7 µM | IC50 (90-8 cells): 42 ± 9 µM | IC50 (STS26T cells): 53 ± 10 µM | IC50 (ST88-14 cells): 42 ± 13 µM
